Measurements taken from US6392032B1, “Heavily fluorinated sugar analogs” (Board of Regents University of Nebraska-Lincoln, priority 1996, dated 2002).

Assay: Qualitative solubility in solvents
Type: physicochemical

SMILES: OCC12OC(O)C1C(F)(F)C(F)(F)C2(F)F (centres unmarked) [Compound 6, 1-Hydroxy-5-(5′-hydroxymethyl)-2,2,3,3,4,4-hexafluorooxane]
- Qualitative solubility (in CHCl3 and other solvents of lower polarity): insoluble
- Qualitative solubility (in acetone, EtOAc, ether, and water): soluble
